Measurements: publication PMC7331731, “Activity of vitamin D receptor agonists against dengue virus” (Scientific Reports, 2020)

Assays:
[1] = test system: DENV infected monocytic U937 cells or hepatic Huh-7 cells; set-up: method as in PMID 22387385; details: U937 or Huh-7 cells; cited from earlier work
DENV 2 [2] = test: DENV 2 virus titer in supernatant by standard plaque assay (infected HEK293T/17 cells); format: cell-based, dengue virus; details: for virus titer, treatment at 6 and 12 h post-infection: read at 24 h.p.i.; for EC50: HEK293T/17 cells, DENV 2 MOI 5, post-infection treatment, virus titer at 24 h by plaque assay
Method: Human embryonic kidney HEK293T/17 (ATCC No. CRL-11268) and human hepatocellular HepG2 (ATCC No. HB-8065) cells were cultured in complete medium, composed of Dulbecco’s modified Eagle medium (DMEM; Gibco BRL) supplemented with 10% heat-inactivated fetal bovine serum (FBS) at 37 °C with 5% CO2. Dengue virus serotype 2 (DENV 2) strain 16681, DENV 1 (strain 16007), DENV 3 (strain 16562), DENV 4 (strain 1036), ZIKV (strain SV0010/15) and JEV (strain BJ1) were all propagated in the Aedes albopictus cell line C6/36 (ATCC No. CRL-1660). Viral progenies in the supernatant were collected and centrifuged at 1,000g to remove cell debris. The virus stocks were kept at − 80 °C until used. Virus titers were determined by standard plaque assay on LLC-MK2 cells (ATCC No. CCL-7).
(§1) HEK293T/17 cells were cultured on 6-well plates until 70% confluence was reached under standard conditions. The cells were mock-infected or infected with DENV 2 at a multiplicity (MOI) of 5 for 2 h. After infection, the medium was removed and the infected cells were incubated with appropriate concentrations of the VDR agonists until 24 h.p.i., in parallel with DMSO treated control cells. Experiments were performed independently triplicate.
(§2) For time course experiments, under conditions of pre-infection treatment, HEK293T/17 cells were pre-treated with an appropriate concentration of VDR agonists for 1, 3 or 6 h before infection, followed by incubation in complete medium. For treatment post-infection, infected cells were treated with VDR agonists at 0, 1, 3, 6 and 12 h.p.i. The infected cells and supernatant for both pre- and post-treated samples were collected at 24 h.p.i. Experiments were performed independently triplicate.

VDR = test: VDR-regulated gene expression by qRT-PCR, VDR; format: cell-based, human; details: 20 µM, 24 h, HEK293T/17, vs actin and 0.02% DMSO
Method: (§3) HEK293T/17 cells were incubated with either 10 µM of VDR agonists or 20 μM of commercial VDR agonist EB1089 (Tocris Cookson Ltd., Bristol, UK) for 24 h. Subsequently, the treated cell lysate was collected to determine the mRNA levels of the VDR gene as well as genes regulated by VDR. Total RNA was extracted and cDNA was synthesized as described above. Amplification was performed using specific primers, namely VDR-F: 5′-[…]-3′, VDR-R: 5′-AGTGGCGTCGGTTGTCCTT-3′, CYP27B1-F: 5′-[…]-3′, CYP27B1-R 5′-[…]-3′, CYP24A1-F: 5′-[…]-3′ and CYP24A1-R 5′-[…]-3′. The mRNA expression was normalized against β-actin and DMSO control-treated cells, respectively according to the following equation: ΔΔCt = ΔCt (gene)—ΔCt (DMSO). Experiments were performed independently in triplicate with triplicate real-time PCR.

CYP24A1 = test: VDR-regulated gene expression by qRT-PCR, CYP24A1; format: cell-based, human; details: 20 µM, 24 h, HEK293T/17, vs actin and 0.02% DMSO
Method: as §3

CYP27B1 = test: VDR-regulated gene expression by qRT-PCR, CYP27B1; format: cell-based, human; details: 20 µM, 24 h, HEK293T/17, vs actin and 0.02% DMSO
Method: as §3

DENV 2 [3] = test: Level of DENV 2 infection by flow cytometry (HEK293T/17 cells); format: cell-based, dengue virus; details: for level of infection: HEK293T/17, vs 0.01% DMSO control; for level of infection, treatment at 6 and 12 h post-infection: read at 24 h.p.i.
Method: as §1, §2
HEK293T/17 cells were mock-infected or infected with DENV 2 at MOI 5 for 2 h, followed by treatment with the appropriate concentration of VDR agonists. At 24 hpi, the treated cells were harvested and Fc receptors were blocked with 10% goat serum (Gibco BRL, Gaithersburg, MD) for 30 min at 4 °C. The cells were washed with 1% BSA in 1X PBS/IFA (150 mM NaCl, 50 mM NaH2PO4, 50 m M Na2HPO4, pH to 7.4) and centrifuged at 6,000 g for 5 min. Then, the cells were fixed with 4% paraformaldehyde in 1X PBS/IFA at room temperature in the dark for 20 min, followed by the washing. Cell membrane permeabilization was performed using 0.2%Triton-X in 1X PBS/IFA for 10 min in the dark followed by overnight incubation with a 1:150 dilution of a pan-specific mouse monoclonal anti-dengue E protein antibody (HB114[44]). Cells were subsequently incubated for 1 h in the dark with a 1:40 dilution of a fluorescein isothiocyanate (FITC)-conjugated goat anti-mouse IgG antibody (KPL, Guilford, UK) with washing between each step 1% BSA/PBS-IFA. Finally, the cells were analyzed by flow cytometry on a BD FACSCalibur cytometer (Becton Dickinson, BD Biosciences, San Jose, CA) using the CELLQuest software. All experiments were performed independently in triplicate.

DENV 2 [4] = test: Level of DENV 2 infection in HepG2 cells by flow cytometry; format: cell-based, dengue virus; details: 10 μM, 24 h, DENV 2 MOI 5
Method: Given that HEK293T/17 cells are not representative of a DENV target tissue, the antiviral activity of the VDR agonists was evaluated in cells representative of a primary target cell. For this reason, HepG2 cells were infected with DENV 2, followed by treatment with 10 μM of the five effective VDR agonists (ZD-1, ZD-2, ZD-3, ZD-5, and ZD-6) for 24 h, after which the level of infection was determined by flow cytometry.
Figure 5 Antiviral activity of VDR agonists against DENV infection on HepG2 cells. HepG2 cells were mock-infected or infected with DENV 2 at MOI 5 for 2 h, followed by the treatment with 10 μM of ZD-1, ZD-2, ZD-3, ZD-5 and ZD-6 for 24 h.p.i. The treated cells were collected and level of infection determined by flow cytometry. p value; *< 0.05, **< 0.01, ***< 0.001 for significance. The experiment was performed independently in triplicate.
HEK293T/17 cells were mock-infected or infected with DENV 2 at MOI 5 for 2 h, followed by treatment with the appropriate concentration of VDR agonists. At 24 hpi, the treated cells were harvested and Fc receptors were blocked with 10% goat serum (Gibco BRL, Gaithersburg, MD) for 30 min at 4 °C. […] Finally, the cells were analyzed by flow cytometry on a BD FACSCalibur cytometer (Becton Dickinson, BD Biosciences, San Jose, CA) using the CELLQuest software. […]

ZIKV (strain SV0010/15) = test: Virus titer by plaque assay, ZIKV; format: cell-based; details: 10 μM, 24 h, HEK293T/17, MOI 10
Method: (§4) For viruses other than DENV 2, HEK293T/17 cells were infected with DENV 1 (strain 16007), DENV 3 (strain 16562), DENV 4 (strain 1036) and ZIKV (strain SV0010/15) at MOI 10 and with JEV (strain BJ1) at MOI 1. At 2 h.p.i., the virus was removed and the cells were incubated with 10 μM of VDR agonist (ZD-6) in complete medium for 24 h, after which the supernatant was collected, and the virus titer was determined by standard plaque assay. Experiments were performed independently triplicate.

[5] = test system: DENV 1, 3, 4, JEV and ZIKV; test: Activity against other flaviviruses, plaque assay (all viruses together); format: cell-based; details: 10 μM, 24 h, HEK293T/17, range over DENV 1, 3, 4, JEV, lowest for JEV and ZIKV
Method: as §4

DENV 1 (strain 16007) = test: Virus titer by plaque assay, DENV 1; format: cell-based, dengue virus; details: 10 μM, 24 h, HEK293T/17, MOI 10
Method: as §4

JEV (strain BJ1) = test: Virus titer by plaque assay, JEV; format: cell-based; details: 10 μM, 24 h, HEK293T/17, MOI 1
Method: as §4

DENV 3 (strain 16562) = test: Virus titer by plaque assay, DENV 3; format: cell-based, dengue virus; details: 10 μM, 24 h, HEK293T/17, MOI 10
Method: as §4

DENV 4 (strain 1036) = test: Virus titer by plaque assay, DENV 4; format: cell-based, dengue virus; details: 10 μM, 24 h, HEK293T/17, MOI 10
Method: as §4

[6] = 20 μM, 24 h.p.i., HEK293T/17, plaque assay
[7] = 10 µM, 24 h, HEK293T/17, plaque assay

## C=C1/C(=C\C=C2/CCC[C@]3(C)[C@@H]([C@H](C)CCCC(C)(C)O)CC[C@@H]23)C[C@@H](O)C[C@@H]1O [1,25(OH)2D3, 1,25-dihydroxyvitamin D3]
[1]
  numbers of infected cells: decreased numbers of infected cells

## C=C1/C(=C\C=C2/CCC[C@]3(C)[C@@H]([C@H](C)/C=C/C=C/C(O)(CC)CC)CC[C@@H]23)C[C@@H](O)C[C@@H]1O [EB1089, reference compound]
DENV 2 [2]; [6]
  reduction of viral production: approximately 2 Log10
  viral yield: significantly reduced
VDR
  transcriptional level of VDR: significantly up regulated
CYP24A1
  transcriptional level of CYP24A1: significantly up regulated
CYP27B1
  transcriptional level of CYP27B1: significantly up regulated
DENV 2 [3]; 20 μM, 24 h.p.i., HEK293T/17
  levels of infected cells: significantly reduced

## O=C1C2CCCN2C(c2ccco2)N1c1ccc([N+](=O)[O-])cc1 (stereo not drawn) [ZD-1]
DENV 2 [4]
  level of infection in HepG2 cells: modest
DENV 2 [2]; [7]
  reduction of virus production: 2-3 Log10
DENV 2 [2]; 10 µM
  virus titer, treatment at 6 and 12 h post-infection: significant reductions
DENV 2 [2]
  EC50: 8.74 µM
HEK293T/17 cells
  CC50: 260 µM
DENV 2 [3]; 10 µM, 24 h
  level of infection: highly significant reductions
DENV 2 [3]; 10 µM
  level of infection, treatment at 6 and 12 h post-infection: significant reductions

## COc1cc(C2N(c3ccc([N+](=O)[O-])cc3)C(=O)C3CCCN32)ccc1O (stereo not drawn) [ZD-2]
DENV 2 [2]; [7]
  reduction of virus production: 2-3 Log10
DENV 2 [2]
  EC50: 11.8 µM
HEK293T/17 cells
  CC50: 314 µM
DENV 2 [3]; 10 µM, 24 h
  level of infection: highly significant reductions

## CSCCC(N)C(=O)Oc1ccc(C2N(c3ccc([N+](=O)[O-])cc3)C(=O)C3CCCN32)cc1.Cl (stereo not drawn) [ZD-3]
DENV 2 [2]
  EC50: 7.47 µM
HEK293T/17 cells
  CC50: 394 µM
DENV 2 [3]; 10 µM, 24 h
  level of infection: highly significant reductions

## CSCCC(NC(=O)OC(C)(C)C)C(=O)Nc1ccc(C2N(c3ccc([N+](=O)[O-])cc3)C(=O)C3CCCN32)cc1 (stereo not drawn) [ZD-4]
DENV 2 [2]; [7]
  reduction of virus production: over 1 Log10
DENV 2 [2]
  EC50: 33.5 µM
HEK293T/17 cells
  CC50: 520 µM
DENV 2 [3]; 10 µM, 24 h, HEK293T/17
  infection levels reduced by: approximately 50%

## COc1ccc(CC2N(c3ccc([N+](=O)[O-])cc3)C(=O)C3CCCN32)cc1OC (stereo not drawn) [ZD-5]
DENV 2 [2]; [7]
  reduction of virus production: 2-3 Log10
DENV 2 [2]; 10 µM
  virus titer, treatment at 6 and 12 h post-infection: significant reductions
DENV 2 [2]
  EC50: 8.46 µM
HEK293T/17 cells
  CC50: 439 µM
DENV 2 [3]; 10 µM, 24 h
  level of infection: highly significant reductions
DENV 2 [3]; 10 µM
  level of infection, treatment at 6 and 12 h post-infection: significant reductions

## O=C1C2CCCN2C(c2ccc(O)cc2)N1c1ccc([N+](=O)[O-])cc1 (stereo not drawn) [ZD-6]
ZIKV (strain SV0010/15)
  virus production, ZIKV: significantly inhibited
DENV 2 [2]; [7]
  reduction of virus production: 2-3 Log10
DENV 2 [2]
  EC50: 11.3 µM
HEK293T/17 cells
  CC50: 277 µM
[5]
  magnitude of inhibition of virus production: 1–3 Log10
DENV 1 (strain 16007)
  virus production, DENV 1: significantly inhibited
JEV (strain BJ1)
  virus production, JEV: significantly inhibited
DENV 2 [3]; 10 µM, 24 h
  level of infection: highly significant reductions
DENV 3 (strain 16562)
  virus production, DENV 3: significantly inhibited
DENV 4 (strain 1036)
  virus production, DENV 4: significantly inhibited

## CSCCC(NC(=O)OC(C)(C)C)C(=O)Oc1ccc(C2N(c3ccc([N+](=O)[O-])cc3)C(=O)C3CCCN32)cc1 (stereo not drawn) [ZD-20]
DENV 2 [2]; [7]
  effect on DENV 2 titer in the supernatant: no significant effect
DENV 2 [2]
  EC50: 152 µM
HEK293T/17 cells
  CC50: 908 µM
DENV 2 [3]; 10 µM, 24 h
  level of infection: no significant reduction
